Experimental data: patent US11787799B2 (priority 2015, dated 2023)

Key:
[1] = test system: Enterovirus D68/US/Mo/14-18949; assay: Antiviral assay, Enterovirus D68 strain US/Mo/14-18949 in RD cells; type: cell-based
Enterovirus D68/Fermon = assay: Antiviral assay, Enterovirus D68 strain Fermon in RD cells; type: cell-based
[2] = test system: Enterovirus D68/US/KY/14-18953; assay: Antiviral assay, Enterovirus D68 strain US/KY/14-18953 in RD cells; type: cell-based
Coxsackievirus B4 = assay: microbe, parasite or virus in culture; type: cell-based; details: read-out: EC50 CVB4
Poliovirus 3 = assay: microbe, parasite or virus in culture; type: cell-based; details: read-out: EC50 PV3
Echovirus 9 = assay: microbe, parasite or virus in culture; type: cell-based; details: read-out: EC50 ECHO09
Coxsackievirus B5 = assay: microbe, parasite or virus in culture; type: cell-based; details: read-out: EC50 CVB5
Coxsackievirus A9 = assay: microbe, parasite or virus in culture; type: cell-based; details: read-out: EC50 COX A9
Coxsackievirus B3-H3 = assay: microbe, parasite or virus in culture; type: cell-based; details: read-out: EC50 CVB3-H3
Poliovirus 1 = assay: microbe, parasite or virus in culture; type: cell-based; details: read-out: EC50 PV1
Coxsackievirus B1 = assay: microbe, parasite or virus in culture; type: cell-based; details: read-out: EC50 CVB1
Echovirus 6 = assay: microbe, parasite or virus in culture; type: cell-based; details: read-out: EC50 ECHO06
Coxsackievirus B2 = assay: microbe, parasite or virus in culture; type: cell-based; details: read-out: EC50 CVB2
Enterovirus 71 = assay: microbe, parasite or virus in culture; type: cell-based; details: read-out: EC50 EV71
Echovirus 7 = assay: microbe, parasite or virus in culture; type: cell-based; details: read-out: EC50 ECHO07

CC(C)n1ncc2c(C(=O)Nc3ccccc3F)cc(-c3nccs3)nc21 [JX-007]
EC50 [1]: 660 ± 100 nM | EC50 (Enterovirus D68/Fermon): 800 ± 280 nM | EC50 [2]: 1200 nM | CC50 (RD cells): > 200000 nM

CC(C)(C)n1ncc2c(C(=O)Nc3ccccc3F)cc(-c3cccs3)nc21 [JX-013]
EC50 [1]: 1070 ± 230 nM | EC50 (Enterovirus D68/Fermon): 1330 ± 230 nM | EC50 [2]: 1800 ± 440 nM | CC50 (RD cells): > 200000 nM

CC(C)n1ncc2c(C(=O)Nc3ccc(F)c(F)c3)cc(-c3cccs3)nc21 [JX-015]
CC50 (LLC cells): > 200000 nM | EC50 (Coxsackievirus B4): 3100 nM | EC50 (Poliovirus 3): > 25000 nM | EC50 (Echovirus 9): 600 nM | CC50 (HeLa-RW cells): > 200000 nM | EC50 (Coxsackievirus B5): 2300 nM | EC50 (Coxsackievirus A9): 1200 nM | EC50 (Coxsackievirus B3-H3): 1300 ± 100 nM | EC50 (Poliovirus 1): > 25000 nM | EC50 (Coxsackievirus B1): 2300 nM | EC50 (Echovirus 6): 1300 ± 100 nM

CC(C)n1ncc2c(C(=O)Nc3cc(F)cc(F)c3)cc(-c3cccs3)nc21 [JX-016]
EC50 (Coxsackievirus B4): > 10000 nM | EC50 (Poliovirus 3): > 10000 nM | EC50 (Coxsackievirus B2): > 10000 nM | EC50 (Coxsackievirus B5): > 10000 nM | EC50 (Coxsackievirus B3-H3): > 10000 nM | EC50 (Poliovirus 1): > 10000 nM | EC50 (Coxsackievirus B1): > 10000 nM

CC(C)n1ncc2c(C(=O)Nc3cc(F)ccc3F)cc(-c3cccs3)nc21 [JX-018]
CC50 (LLC cells): 100000 nM | EC50 (Enterovirus 71): 3500 nM | EC50 (Poliovirus 3): > 25000 nM | CC50 (HeLa-RW cells): > 200000 nM | EC50 (Coxsackievirus A9): 2400 nM | EC50 (Coxsackievirus B3-H3): 2700 ± 400 nM | EC50 (Poliovirus 1): > 25000 nM | EC50 (Echovirus 6): 2600 ± 300 nM

CC(C)n1ncc2c(C(=O)Nc3cccc(F)c3F)cc(-c3cccs3)nc21 [JX-019]
CC50 (LLC cells): 75000 nM | EC50 (Enterovirus 71): 3000 nM | EC50 (Poliovirus 3): > 25000 nM | CC50 (HeLa-RW cells): > 200000 nM | EC50 (Coxsackievirus B3-H3): 2700 ± 400 nM | EC50 (Poliovirus 1): > 25000 nM | EC50 (Echovirus 6): 2000 ± 600 nM

CC(C)n1ncc2c(C(=O)Nc3c(F)cc(F)cc3F)cc(-c3cccs3)nc21 [JX-020]
CC50 (LLC cells): > 200000 nM | EC50 (Enterovirus 71): 3000 nM | EC50 (Coxsackievirus B4): 3100 nM | EC50 (Poliovirus 3): > 25000 nM | CC50 (HeLa-RW cells): > 200000 nM | EC50 (Coxsackievirus B5): 2300 nM | EC50 (Coxsackievirus A9): 2400 nM | EC50 (Coxsackievirus B3-H3): 1800 ± 700 nM | EC50 (Poliovirus 1): > 25000 nM | EC50 (Coxsackievirus B1): 6000 nM | EC50 (Echovirus 6): 2400 nM

CC(C)n1ncc2c(C(=O)Nc3ccc(F)cc3)cc(-c3ccco3)nc21 [JX-026]
CC50 (LLC cells): > 200000 nM | EC50 (Enterovirus 71): 2600 ± 300 nM | EC50 (Coxsackievirus B4): 3300 nM | EC50 (Poliovirus 3): > 25000 nM | EC50 (Coxsackievirus B2): 3300 nM | CC50 (HeLa-RW cells): > 200000 nM | EC50 (Coxsackievirus B5): 3300 nM | EC50 [1]: 1000 ± 20 nM | EC50 (Coxsackievirus B3-H3): 2400 nM | EC50 (Enterovirus D68/Fermon): 1200 nM | EC50 (Poliovirus 1): > 25000 nM | EC50 (Coxsackievirus B1): 3300 nM | EC50 [2]: 1300 ± 200 nM | EC50 (Echovirus 6): 2400 nM | CC50 (RD cells): > 200000 nM

CC(C)n1ncc2c(C(=O)Nc3ccccc3S(N)(=O)=O)cc(-c3cccs3)nc21 [JX-033]
CC50 (LLC cells): 25000 nM | EC50 (Enterovirus 71): 2500 ± 700 nM | EC50 (Coxsackievirus B4): 3100 ± 100 nM | EC50 (Poliovirus 3): > 25000 nM | EC50 (Coxsackievirus B2): 3900 ± 1100 nM | CC50 (HeLa-RW cells): 10000 nM | EC50 (Coxsackievirus B5): 2700 ± 600 nM | EC50 (Coxsackievirus A9): 2400 nM | EC50 (Coxsackievirus B3-H3): 2600 ± 400 nM | EC50 (Poliovirus 1): > 25000 nM | EC50 (Coxsackievirus B1): 3900 ± 1100 nM | EC50 (Echovirus 6): 2400 nM

CC(C)n1ncc2c(C(=O)Nc3ccc(F)cc3)cc(C3CC3)nc21 [JX-038]
CC50 (LLC cells): 12500 nM | EC50 (Enterovirus 71): 3200 ± 100 nM | EC50 (Poliovirus 3): > 10000 nM | EC50 (Coxsackievirus B2): 4700 nM | CC50 (HeLa-RW cells): 10000 nM | EC50 (Coxsackievirus A9): 3000 nM | EC50 (Coxsackievirus B3-H3): 4700 nM | EC50 (Poliovirus 1): > 10000 nM | EC50 (Coxsackievirus B1): 4700 nM | EC50 (Echovirus 6): 3900 nM

CC(C)n1ncc2c(C(=O)Nc3ccncc3)cc(-c3cccs3)nc21 [JX-042]
CC50 (LLC cells): 6250 nM | EC50 (Enterovirus 71): 400 nM | EC50 (Coxsackievirus B4): 600 nM | EC50 (Poliovirus 3): > 10000 nM | EC50 (Coxsackievirus B2): 600 nM | CC50 (HeLa-RW cells): 6000 nM | EC50 (Coxsackievirus B5): 600 nM | EC50 (Coxsackievirus A9): 500 nM | EC50 (Coxsackievirus B3-H3): 600 nM | EC50 (Poliovirus 1): > 10000 nM | EC50 (Coxsackievirus B1): 600 nM | EC50 (Echovirus 6): 200 nM

CC(C)n1ncc2c(C(=O)Nc3ccncn3)cc(-c3cccs3)nc21 [JX-043]
CC50 (LLC cells): 50000 nM | EC50 (Enterovirus 71): 500 ± 100 nM | EC50 (Echovirus 7): 700 nM | EC50 (Coxsackievirus B4): 500 nM | EC50 (Poliovirus 3): > 10000 nM | EC50 (Coxsackievirus B2): 600 nM | CC50 (HeLa-RW cells): 20000 nM | EC50 (Coxsackievirus B5): 600 nM | EC50 (Coxsackievirus A9): 500 nM | EC50 (Coxsackievirus B3-H3): 600 nM | EC50 (Poliovirus 1): > 10000 nM | EC50 (Coxsackievirus B1): 600 nM | EC50 (Echovirus 6): 200 nM

CC(C)n1ncc2c(C(=O)Nc3ccc(S(C)(=O)=O)cc3)cc(-c3cccs3)nc21 [JX-047]
CC50 (LLC cells): 50000 nM | EC50 (Enterovirus 71): 500 ± 100 nM | EC50 (Echovirus 7): 800 nM | EC50 (Coxsackievirus B4): 600 nM | EC50 (Poliovirus 3): > 10000 nM | EC50 (Coxsackievirus B2): 600 nM | CC50 (HeLa-RW cells): 200000 nM | EC50 (Coxsackievirus B5): 600 nM | EC50 [1]: 160 ± 40 nM | EC50 (Coxsackievirus A9): 500 nM | EC50 (Coxsackievirus B3-H3): 600 nM | EC50 (Enterovirus D68/Fermon): 300 nM | EC50 (Poliovirus 1): > 10000 nM | EC50 (Coxsackievirus B1): 600 nM | EC50 [2]: 300 nM | EC50 (Echovirus 6): 300 nM | CC50 (RD cells): 75000 nM
